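Exposure lasted 48 hours, with cells grown in 96-well plates and compounds tested at five concentrations. Here, GI50 denotes the concentration required for 50% inhibition of growth.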 Activity calls are given as the source filed them. No stated cut-off is given here; in the data, active = GI50 up to about 1.1 µM and inactive = higher.
What was measured:
Experiment in all cases: DTP human tumour cell line panel, 48 h
[1] = tested on: SF-539
[2] = tested on: NCI/ADR-RES
[3] = tested on: A549
[4] = tested on: OVCAR-3
[5] = tested on: UACC-62
[6] = tested on: NCI-H460
[7] = tested on: U-251
[8] = tested on: SK-MEL-5
[9] = tested on: OVCAR-8
[10] = tested on: SK-OV-3
[11] = tested on: NCI-H226
[12] = tested on: EKVX
[13] = tested on: 786-0
[14] = tested on: IGROV-1
[15] = tested on: NCI-H522
[16] = tested on: DU-145
[17] = tested on: BT-549
[18] = tested on: COLO 205
[19] = tested on: M14
[20] = tested on: SF-295
[21] = tested on: Malme-3M
[22] = tested on: SNB-19
[23] = tested on: SNB-75
[24] = tested on: MDA-N
[25] = tested on: RPMI-8226
[26] = tested on: SN12C
[27] = tested on: SK-MEL-28
[28] = tested on: OVCAR-4
[29] = tested on: PC-3
[30] = tested on: K562
[31] = tested on: MDA-MB-231
[32] = tested on: RXF 393
[33] = tested on: KM12
[34] = tested on: HCT-15
[35] = tested on: HOP-92
[36] = tested on: NCI-H23
[37] = tested on: CAKI-1
[38] = tested on: T47D
[39] = tested on: HOP-62
[40] = tested on: MDA-MB-435
[41] = tested on: SF-268
[42] = tested on: A498
[43] = tested on: MCF7
[44] = tested on: OVCAR-5
[45] = tested on: UACC-257
[46] = tested on: TK-10
[47] = tested on: UO-31
[48] = tested on: ACHN
[49] = tested on: SW-620
[50] = tested on: Hs-578T
[51] = tested on: HT-29
[52] = tested on: SK-MEL-2
[53] = tested on: HCT-116
[54] = tested on: CCRF-CEM
[55] = tested on: HCC 2998
[56] = tested on: MOLT-4
[57] = tested on: LOX IMVI
[58] = tested on: HL-60

## Cn1c(=O)c2c(ncn2CCSS(=O)(=O)O)n(C)c1=O
[1]
  GI50: > 100 µM (inactive)
[2]
  GI50: > 100 µM (inactive)
[3]
  GI50: > 100 µM (inactive)
[4]
  GI50: > 100 µM (inactive)
[5]
  GI50: 53.2 µM (inactive)
[6]
  GI50: 66.4 µM (inactive)
[7]
  GI50: 45.8 µM (inactive)
[8]
  GI50: > 100 µM (inactive)
[9]
  GI50: > 100 µM (inactive)
[10]
  GI50: > 100 µM (inactive)
[11]
  GI50: > 100 µM (inactive)
[12]
  GI50: 72.6 µM (inactive)
[13]
  GI50: > 100 µM (inactive)
[14]
  GI50: > 100 µM (inactive)
[15]
  GI50: > 100 µM (inactive)
[16]
  GI50: > 100 µM (inactive)
[17]
  GI50: > 100 µM (inactive)
[18]
  GI50: > 100 µM (inactive)
[19]
  GI50: 72.3 µM (inactive)
[20]
  GI50: > 100 µM (inactive)
[21]
  GI50: > 100 µM (inactive)
[22]
  GI50: > 100 µM (inactive)
[23]
  GI50: 38.5 µM (inactive)
[24]
  GI50: > 100 µM (inactive)
[25]
  GI50: > 100 µM (inactive)
[26]
  GI50: > 100 µM (inactive)
[27]
  GI50: > 100 µM (inactive)
[28]
  GI50: > 100 µM (inactive)
[29]
  GI50: > 100 µM (inactive)
[30]
  GI50: > 100 µM (inactive)
[31]
  GI50: 45.9 µM (inactive)
[32]
  GI50: 79.1 µM (inactive)
[33]
  GI50: > 100 µM (inactive)
[34]
  GI50: > 100 µM
[35]
  GI50: > 100 µM (inactive)
[36]
  GI50: > 100 µM (inactive)
[37]
  GI50: > 100 µM (inactive)
[38]
  GI50: > 100 µM (inactive)
[39]
  GI50: 86.9 µM (inactive)
[40]
  GI50: > 100 µM (inactive)
[41]
  GI50: > 100 µM (inactive)
[42]
  GI50: > 100 µM (inactive)
[43]
  GI50: > 100 µM (inactive)
[44]
  GI50: > 100 µM (inactive)
[45]
  GI50: > 100 µM (inactive)
[46]
  GI50: > 100 µM (inactive)
[47]
  GI50: > 100 µM (inactive)
[48]
  GI50: > 100 µM (inactive)
[49]
  GI50: > 100 µM (inactive)
[50]
  GI50: 74.5 µM (inactive)
[51]
  GI50: 99.5 µM (inactive)
[52]
  GI50: 55.3 µM (inactive)
[53]
  GI50: > 100 µM (inactive)

## CCCCCCCCSC1=C(Cl)C(=O)C(OC)=C(OC)C1=O
[1]
  GI50: 14.2 µM (inactive)
[2]
  GI50: 17.4 µM (inactive)
[3]
  GI50: 17.9 µM (inactive)
[4]
  GI50: 7.14 µM (inactive)
[5]
  GI50: 10.3 µM (inactive)
[6]
  GI50: 15.4 µM (inactive)
[7]
  GI50: 10.5 µM (inactive)
[8]
  GI50: 4.74 µM (inactive)
[9]
  GI50: 12 µM (inactive)
[10]
  GI50: 23.1 µM (inactive)
[11]
  GI50: 12.4 µM (inactive)
[12]
  GI50: 10.9 µM (inactive)
[13]
  GI50: 12.5 µM (inactive)
[14]
  GI50: 14.1 µM (inactive)
[15]
  GI50: 2.47 µM (inactive)
[16]
  GI50: 15.1 µM (inactive)
[17]
  GI50: 14 µM (inactive)
[18]
  GI50: 17.1 µM (inactive)
[54]
  GI50: 5.68 µM (inactive)
[19]
  GI50: 2.16 µM (inactive)
[20]
  GI50: 12.5 µM (inactive)
[21]
  GI50: 7.73 µM (inactive)
[55]
  GI50: 15.2 µM (inactive)
[22]
  GI50: 10.5 µM (inactive)
[23]
  GI50: 19.1 µM (inactive)
[24]
  GI50: 3.82 µM (inactive)
[25]
  GI50: 0.52 µM (active)
[26]
  GI50: 5.09 µM (inactive)
[28]
  GI50: 11.1 µM (inactive)
[29]
  GI50: 14.2 µM (inactive)
[30]
  GI50: 9.71 µM (inactive)
[31]
  GI50: 12.4 µM (inactive)
[32]
  GI50: 13.2 µM (inactive)
[33]
  GI50: 7.53 µM (inactive)
[34]
  GI50: 6.34 µM
[56]
  GI50: 3.12 µM (inactive)
[35]
  GI50: 17 µM (inactive)
[36]
  GI50: 13 µM (inactive)
[37]
  GI50: 12.3 µM (inactive)
[38]
  GI50: 5.08 µM (inactive)
[39]
  GI50: 17.2 µM (inactive)
[40]
  GI50: 4.45 µM (inactive)
[57]
  GI50: 4.57 µM (inactive)
[41]
  GI50: 12.4 µM (inactive)
[42]
  GI50: 12.3 µM (inactive)
[43]
  GI50: 3.94 µM (inactive)
[44]
  GI50: 6.67 µM (inactive)
[45]
  GI50: 5.6 µM (inactive)
[58]
  GI50: 2.11 µM (inactive)
[46]
  GI50: 14.1 µM (inactive)
[47]
  GI50: 12.1 µM (inactive)
[48]
  GI50: 10 µM (inactive)
[49]
  GI50: 10.6 µM (inactive)
[50]
  GI50: 20.7 µM (inactive)
[51]
  GI50: 16.9 µM (inactive)
[52]
  GI50: 15.4 µM (inactive)
[53]
  GI50: 4.83 µM (inactive)

## N#CCCN(CCNc1ccccc1)C(=O)Nc1ccc(NC(=O)N(CCC#N)CCNc2ccccc2)cc1
[1]
  GI50: > 100 µM (inactive)
[2]
  GI50: > 63.8 µM (inactive)
[3]
  GI50: > 100 µM (inactive)
[4]
  GI50: > 92.9 µM (inactive)
[5]
  GI50: > 100 µM (inactive)
[6]
  GI50: > 67.6 µM (inactive)
[7]
  GI50: > 100 µM (inactive)
[8]
  GI50: > 100 µM (inactive)
[9]
  GI50: > 73.8 µM (inactive)
[10]
  GI50: > 65.6 µM (inactive)
[11]
  GI50: > 73.5 µM (inactive)
[12]
  GI50: > 100 µM (inactive)
[13]
  GI50: > 68.9 µM (inactive)
[15]
  GI50: 21.1 µM (inactive)
[16]
  GI50: > 92.9 µM (inactive)
[17]
  GI50: > 38.5 µM (inactive)
[18]
  GI50: > 100 µM (inactive)
[19]
  GI50: > 100 µM (inactive)
[20]
  GI50: > 74.6 µM (inactive)
[21]
  GI50: > 100 µM (inactive)
[55]
  GI50: > 100 µM (inactive)
[22]
  GI50: > 100 µM (inactive)
[23]
  GI50: 26.2 µM (inactive)
[24]
  GI50: > 100 µM (inactive)
[25]
  GI50: > 100 µM (inactive)
[26]
  GI50: > 100 µM (inactive)
[27]
  GI50: > 94.8 µM (inactive)
[28]
  GI50: 24.7 µM (inactive)
[29]
  GI50: > 93.1 µM (inactive)
[30]
  GI50: > 100 µM (inactive)
[31]
  GI50: > 100 µM (inactive)
[32]
  GI50: > 45.3 µM (inactive)
[33]
  GI50: > 96.6 µM (inactive)
[34]
  GI50: > 60.3 µM
[56]
  GI50: > 100 µM (inactive)
[35]
  GI50: > 45.9 µM (inactive)
[36]
  GI50: > 68.4 µM (inactive)
[37]
  GI50: > 100 µM (inactive)
[38]
  GI50: > 58.1 µM (inactive)
[39]
  GI50: > 47 µM (inactive)
[40]
  GI50: > 100 µM (inactive)
[57]
  GI50: 51.1 µM (inactive)
[41]
  GI50: > 47.4 µM (inactive)
[42]
  GI50: > 100 µM (inactive)
[43]
  GI50: > 100 µM (inactive)
[44]
  GI50: > 100 µM (inactive)
[45]
  GI50: > 100 µM (inactive)
[46]
  GI50: > 61.4 µM (inactive)
[47]
  GI50: > 100 µM (inactive)
[48]
  GI50: > 100 µM (inactive)
[49]
  GI50: > 100 µM (inactive)
[50]
  GI50: > 41.9 µM (inactive)
[51]
  GI50: > 100 µM (inactive)
[52]
  GI50: > 100 µM (inactive)
[53]
  GI50: > 100 µM (inactive)
